What was measured:
[1] = Hydroxyapatite challenge of Ba-L complexes (GFAAS); assay type: physicochemical; settings: HAP suspension, pH 7.6, after 20 h
Procedure: HAP was suspended in solutions containing the complexes formed in situ (1.1 equiv L, 1.0 equiv Ba^2+) in pH 7.6 buffer, and the amount of Ba^2+ remaining in the liquid phase, reflecting intact Ba-L complex, was determined by graphite furnace atomic absorption spectroscopy (GFAAS). Whereas free Ba^2+ is adsorbed by HAP in less than 10 min, Ba-macropa and Ba-macropaquin respectively retained 82% and 68% of this ion after 20 h. […] This feature may be important for Ba^2+ chelation in industrial applications, such as scale dissolution, because numerous other metal ions are present during these processes. […]
More specifically, hydroxyapatite (HAP, Ca5(PO4)3(OH)) challenges were carried out in 500 mM Tris buffer. […] The concentrations of these stocks were verified by quantitative NMR (n=2 for each ligand) using two independently prepared standards of potassium hydrogen phthalate in D2O. […] The concentration of macroquin-SO3 was determined by UV-vis spectrophotometry from the average of two titrations with Ba^2+. […] The absorbance at 320 nm was monitored until spectral changes ceased, at which point [Ba^2+]=[L]. From the volume of titrant added, the concentration of the stock solution of macroquin-SO3 was calculated to be 8.17 mM, which was within 9% of the theoretical value of 8.96 mM based on mass. […]

[2] = CRC Handbook; cited from earlier work

## O=C([O-])c1cccc(CN2CCOCCOCCN(Cc3cccc(C(=O)[O-])n3)CCOCCOCC2)n1.[Ba+2] [Ba-macropa]
[1]
  Ba^2+ remaining in the liquid phase (intact Ba-L complex): 82%

## O=S(=O)([O-])[O-].[Ba+2] [BaSO4]
[2]
  Ksp: 1.08×10^−10

Source: US11708283B2, “Metal-chelating compositions and their use in methods of removing or inhibiting barium scale” (CORNELL UNIVERSITY, priority 2018, dated 2023)
